These results are taken from PMC11372076, “A dual inhibitor of PIP5K1C and PIKfyve prevents SARS-CoV-2 entry into cells” (Experimental & Molecular Medicine, 2024).

Where two headings read alike, the source gives them in different places. A value given as a limit tells only on which side of the number the result lay.

Data set [1] deals with Vero cells. In words: Endosomal pH change test with acridine orange. Format: cell-based. To be noted: 1 µM for 1 h. The method, then: This image-based experiment was performed according to our previous report with some modifications. Vero cells were cultured in a glass bottom 35 mm dish (6 × 10^4 cells per well) overnight. Each compound, including 1 µM UNC3230, apilimod or UNI418, was added to Vero cells for 1 h at 37 °C. The cells were stained with acridine orange (Sigma‒Aldrich, A9231) at a final concentration of 4 µg/mL for 30 min. After washing with PBS twice, images were acquired using a confocal microscope (Zeiss LSM 700, Baden-Württemberg, Germany) at two emission wavelengths, 493 to 560 nm and 590 to 720 nm, with excitation at 488 nm. The green-to-red ratio or vacuole size was measured using the built-in software ZEN 3.1.
Fig. 3 UNI418 negatively affects autophagosome-lysosome fusion and endosome acidification. a Live-cell imaging of HEK293T cells stably expressing mCherry-GFP-LC3 treated with 0.5 μM UNI418 at the indicated time points; the images within the white rectangular boxes are magnified on the right side. Scale bar, 30 µm. The number (b) and area (c) of GFP-positive dots per cell were quantified by ImageXpress. d Immunofluorescence images illustrating the inhibition of endolysosomal acidification by UNI418. Vero cells were treated with the mock control or 1 µM UNC3230, apilimod or UNI418 for 1 h at 37 °C. Acridine orange (4 µg/mL) was added to the compound-treated live cells, followed by additional incubation for 30 min. The cells were analyzed by confocal microscopy using two emission wavelengths at 493–560 (green) and 590–720 nm (red) after excitation at 488 nm. Merged images are presented, and images within the white rectangular boxes are magnified on the right side. Original magnification, 630×. The green-to-red fluorescence intensity ratio (e) and the area of fluorescent spots (f) were quantified. b, c, e, f The data are presented as the means ± SEMs, with a minimum of 200 spots. Statistical significance was determined by Student’s t test; *p < 0.05, **p < 0.01, ***p < 0.001 and ****p < 0.0001. n.s., not significant.

The subject of data set [2] is ACE2-mediated endocytosis in HEK293T cells. It is filed as cell-based. Particulars: 20 μg/mL spike-RBD, 2 h.
In data set [3] the test system is RPE1 cells. In words: Western blot of autophagy-monitoring proteins SQSTM1/p62 and LC3-II. Format: cell-based. The source says:
Fig. 2 UNI418 inhibits autophagy. a Western blot analysis of p62, LC3B-I, LC3B-II and GAPDH in the presence of UNC3230, apilimod and UNI418. b Immunofluorescence staining with LC3B (green) and p62 (red) antibodies upon treatment with UNC3230, apilimod and UNI418, and images within the white rectangular boxes are magnified on the right side. Scale bar, 20 µm. c The area of fluorescence intensity from immunofluorescence images (b) was quantified after UNC3230, apilimod and UNI418 treatments. d, e Quantification of autophagic flux under normal conditions and under HBSS-induced starvation conditions with or without UNI418 treatment. RPE1 cells were treated with UNI418 (0.5 µM or 1 µM) for 2 h in the presence or absence of a lysosomal inhibitor (bafilomycin A1, BFA). Representative Western blot images (d) and the graph showing the average of 4 independent experiments (e). The error bars indicate the S.D. Statistical analysis was performed using two-way ANOVA; *p < 0.05, ***p < 0.001.
Supplementary Materials and Methods
The whole cell extracts were prepared by lysis of harvested cells with M -PER Mammalian protein extraction reagent (Thermo Fisher Scientific). The protein concentrations were determined by Bradford protein assay (Bio- Rad). The 10 to 20 μ g of prepared proteins were separated by the SDS-PAGE and transferred to PVDF membrane, which were then blocked in 5% skim milk for 30 minutes at room temperature. […] The images were obtained and quantified by Fusion solo ChemiDoc system (Vilber).
Autophagic flux assay was analyzed essentially as previously described1,2.
Briefly, RPE1 cells were treated with UNI418 (0, 0.5, or 1 µM) for 2 h with/without bafilomycin A1 to inhibit lysosomal degradation under normal growth media or HBSS. […] The LC3- II bands were quantified using Fusion Solo ChemiDoc system (Vilber) and normalized to GAPDH bands.
Autophagy flux was calculated by subsidizing the lysosomal inhibitor-treated cells to non- treatment cells in both normal growth media and HBSS-induced starvation with 0, 0.5, or 1 µM UNI418. […]

The test system of the next data set is cathepsin D. In words: Cathepsin D maturation by Western blot. It is filed as cell-based.
Data set [4] concerns Vero cells.
For data set [5], the system named is RPE1 cells. In words: Vacuolization analysis. It is filed as cell-based. The method, then: CUGAUCAAGAU G A -3 and PIKfyve#2 siRNA 5'-
[…] -3'. siRNA oligonucleotides were purchased from Genolution, Sigma- Aldrich and Integrated DNA Technologies.
These siRNAs were transfected into the cell using lipofectamine RNAiMAX (Invitrogen, 13778150) following manufacturer ’s protocol.
RPE1 cells were treated with UNI418 at indicated concentration for over-night.
After that, the image was taken by EVOS M5000 (Thermo Fisher Scientific).
RPE1 cells were treated with UNI418 at the different concentration during the time. Live cell images were taken by Lionheart LX Automated Microscope and analyzed in Gen5 (Agilent).
RPE1 cells were treated with indicated doses of UNI418 overnight. To analyze PIP2 level by flow cytometry, trypsinized cells were fixed with 4% paraformaldehyde for 10 min at room temperature. The fixed cells were permeabilized with 0.2% PBS-T (Triton X-100) for 5min and blocked with 5% Bovine Serum Albumin (BSA), and stained with the primary antibody for 4h at 4°C. Cells were washed three times with 1% BSA-PBS and incubated with the fluorescence- conjugated secondary antibody Alexa Fluor® 488 AffiniPure Goat Anti-Mouse IgG (H+L) (Jackson ImmunoResearch,111- 545- 003) for 1h at room temperature analyzed by BD Accuri C6 Plus flow cytometer (BD Biosciences). […]

For data set [6], the system named is Wuhan-Hu-1 spike-pseudotyped virus. Description: microbe, parasite or virus in culture. Format: cell-based, SARS-CoV-2. Particulars: read-out: concentration that inhibited spike-mediated viral entry by 50% compared to maximal inhibition.
The test system of another data set is SARS-CoV-2. Description: microbe, parasite or virus in culture. It is filed as cell-based, SARS-CoV-2 (hCoV-19/Korea/KCDC06/2020). Particulars: for EC50: read-out: EC50 (reducing number of spike-positive cells by 50%).
The nature of a further data set: in vitro. To be noted: African green monkey.

In the case of `NC(=O)c1nc(Nc2ccccc2)sc1NC(=O)C1CCCCC1` [UNC3230], the “green-to-red ratio of fluorescent spots relative to mock-treated sample” value with Vero cells [1] is reported as 2.6 fold. In addition, in data set [2] (0.5 μM compound), the “ACE2-mediated endocytosis triggered by spike-RBD” value is “successfully inhibited”. Further, in the data set on RPE1 cells [3], the “accumulation of SQSTM1/p62 and LC3-II” value was “did not have the same effect”. Moreover, in the data set on cathepsin D, the “proteolytic cleavage (maturation) of cathepsin D” value is recorded as “did not”. Further, the “cytotoxicity on Day 2” value in the data set on Vero cells [4] (Vero cells, Day 2) is “highly toxic”. The compound further displayed a CC50 in the data set with Vero cells [4] (mock-infected Vero cells, MTT, Day 1) greater than 100 µM. The vacuolization entry in the data set with RPE1 cells [5] is recorded as “did not induce vacuoles”. Besides, the IC50 in [6] worked out at 4 µM. Besides, the EC50 with SARS-CoV-2 was found to be 95.1 µM.

Turning to `O=C(N/N=C/c1ccc(O)c(O)c1)c1cc2ccccc2cc1O` [dynasore], the “ACE2-mediated endocytosis triggered by spike-RBD” value in [2] (0.1 mM dynasore) was “successfully inhibited”.

The compound `CCC(CC)COC(=O)[C@H](C)N[P@](=O)(OC[C@H]1O[C@@](C#N)(c2ccc3c(N)ncnn23)[C@H](O)[C@@H]1O)Oc1ccccc1` [remdesivir] came in with a CC50 in “in vitro” greater than 100 µM. In the data set with SARS-CoV-2 (Severe acute respiratory syndrome coronavirus 2, Vero, 48 h), the EC50 stood at 8.9 µM. Also, the “selectivity index (SI), ratio of CC50 to EC50” value with SARS-CoV-2 (Vero cells, Day 2) was greater than 11.2.
